{
  "source": "patent US4110626A",
  "about": "“Method for improving the quality of the fragrance of perfumes using aliphatic dibasic acid diesters” (Shiseido Co., Ltd., priority 1976, dated 1978)",
  "key": {"Pseudomonas aeruginosa": {"system": "Pseudomonas aeruginosa", "test": "Microorganism assimilation", "conditions": "for OD (turbidity): 660 nm"}, "skin of an albino rabbit": {"system": "skin of an albino rabbit", "test": "Primary irritation of the skin of an albino rabbit", "type": "in vivo", "conditions": "0.3 ml, intact and abraded area, 24 hours", "description": "The primary irritation of the skin of an albino rabbit was determined by adhering 0.3 ml of a test agent on a lint cloth patch, applying the cloth to an intact area and an abraded area of the skin of the back of the albino rabbit, and evaluating the skin reactions at these two areas after a lapse of 24 hours. Then, an overall evaluation was made."}, "[1]": {"test": "Stabilizing effect on octanal (APHA color)", "type": "physicochemical", "conditions": "37° C, 1 month; original APHA 15; 50% controlling agent added or octanal alone", "description": "Octanal was selected as a single perfume, and the stabilizing effect of the perfume controlling agent was determined.\nAmount of Perfume Controlling Agent: 50% based on the octanal (in the case of both DIBA and DIAA)\nTest Temperature and Period: 37° C, one month (checked every week)\nItems Evaluated: Acid value (AV), carbonyl value (COV), APHA color\nIn the test, a 100 ml brown bottle boiled in water for 12 hours was used, and the head space of the bottle was purged with nitrogen gas after the octanal had been introduced into the bottle.\nSpecifically, the color of a solution obtained by diluting 1 ml of a standard original color liquid (octanal) with water exactly to a volume of 100 ml is taken as APHA No. 5, and the APHA color number is increased by a multiple of 5 (as 10, 15, 20 . . . ) for every 1 ml increase of the original liquid."}, "[2]": {"test": "Fixing effect: analysis of residue on paper after standing 15 minutes", "type": "physicochemical", "description": "(§1) Then, the fixing effect was evaluated by a second head space gas chromatographic (II) method (HS-GC (II)). Specifically, a perfume containing 0.7 g of a perfume controlling agent was coated on a sheet of paper having a predetermined thickness, area (11.5 × 7.5 cm), and weight (about 2.9 g). The coated paper was allowed to stand for 15 minutes in an open space in a room (6 × 4 × 2.5 m) maintained at a humidity of 50% at a ventilation rate of 1,500 m^3 /hr. The paper was then transferred into a 1,000 ml Erlenmeyer flask, and the flask was tightly sealed. After a lapse of 15 minutes, the volatilized portion was collected and analyzed by gas chromatography under the conditions shown Table A above. Furthermore, the residue on the paper was extracted with acetone, and analyzed by gas chromatography using conditions shown in Table B below.\nColumn: 5% FFAP (free fatty acid polyester; a trade name for a product of Nippon Chromato Co., Ltd.) on diatomaceous earth (2m)\nColumn Temperature: 80° C (5 minutes, isothermal) to 220° C (4° C/min.)\nInjector Temperature: 260° C\nDetector Temperature: 260° C\n(§2) Detector: Flame Ionization Detector\n(§3) Carrier Gas: He (40 ml/min.)\n(§4) The composition of the model perfume used was as follows:\nThe values shown in Table 5 above were obtained by calculating the areas of the perfumes while the area of musk ketone measured by gas chromatography was taken as 1. (This calculating procedure was adopted because musk ketone has a high boiling point, and scarcely volatilizes at 30° C.)"}, "[3]": {"test": "Acute oral toxicity (LD50)"}, "[4]": {"test": "Fixing effect: HS-GC (II), analysis of volatilized portion after standing 15 minutes", "type": "physicochemical", "conditions": "for Analysis of Volatilized Portion after Standing 15 Minutes (HS-GC (II) Method): controlling agent 15%, model perfume 5%", "description": "as §1, §4\nModel Perfume: 5% by weight\n95% Ethanol: 95% by weight\nThe composition of the perfume containing a perfume controlling agent was as follows:\nPerfume Controlling Agent: 15% by weight\n95% Ethanol: 80% by weight"}, "[5]": {"test": "Fixing effect: head space gas chromatographic (I) method (HS-GC (I))", "type": "physicochemical", "conditions": "35° C, 60 minutes", "description": "A model perfume formulation was prepared using eight typical perfumes having different chemical structures, and the fixing effect of a perfume controlling agent was evaluated.\nThe fixing effect of the perfume controlling agent was determined using a head space gas chromatographic (I) method (to be abbreviated hereinafter as HS-GC (I) method). Specifically, 0.5 g of a perfume containing the perfume controlling agent was placed in an Erlenmeyer flask, and after sealing, the flask was allowed to stand at 35° C for 60 minutes.\nColumn: 3% polyethylene glycol having a molecular weight of about 20,000 on diatomaceous earth (2m)\nColumn Temperature: -40° C (5 minutes, isothermal) flushed to 80° C and then to 200° C (4° C/min.)\nInjector Temperature: 250° C\nDetector Temperature: 250° C\nas §2, §3"}, "skin of a guinea pig": {"system": "skin of a guinea pig", "test": "Cumulative irritation on the skin of a guinea pig", "type": "in vivo", "conditions": "0.3 ml three times at 24 hour intervals, intact skin", "description": "The cumulative irritation on the skin of a guinea pig was evaluated by coating 0.3 ml of a test agent on intact skin of the guinea pig and judging the skin reaction after a lapse of 24 hours, then coating the test agent in an amount of 0.3 ml on the same site twice, each at 24 hour intervals, and judging the reaction of the skin after a lapse of 72 hours (after coating three times)."}},
  "data": [
    {"smiles": "CC(C)COC(=O)CCCCC(=O)OCC(C)C", "note": "[DIBA, diisobutyl adipate]", "values": [
      {"measurement": "pH", "setting": "Pseudomonas aeruginosa; 0 days elapsed", "result": 6.94},
      {"measurement": "Number of Living Cells", "setting": "Pseudomonas aeruginosa; 2 days elapsed", "result": "2.3 × 10^7"},
      {"measurement": "pH", "setting": "Pseudomonas aeruginosa; 2 days elapsed", "result": 4.72},
      {"measurement": "OD (turbidity)", "setting": "Pseudomonas aeruginosa; 2 days elapsed", "result": 0.152},
      {"measurement": "Number of Living Cells", "setting": "Pseudomonas aeruginosa; 7 days elapsed", "result": "3 × 10^2"},
      {"measurement": "pH", "setting": "Pseudomonas aeruginosa; 7 days elapsed", "result": 4.42},
      {"measurement": "OD (turbidity)", "setting": "Pseudomonas aeruginosa; 7 days elapsed", "result": 0.13},
      {"measurement": "Number of Living Cells", "setting": "Pseudomonas aeruginosa; 14 days elapsed", "result": "< 10^2"},
      {"measurement": "pH", "setting": "Pseudomonas aeruginosa; 14 days elapsed", "result": 4.40},
      {"measurement": "OD (turbidity)", "setting": "Pseudomonas aeruginosa; 14 days elapsed", "result": 0.115},
      {"measurement": "Assimilation by microorganism", "setting": "Pseudomonas aeruginosa; conclusion from Table 8", "result": "assimilated very well"},
      {"measurement": "Primary irritation of the skin", "setting": "skin of an albino rabbit", "result": "did not exhibit irritating effects"},
      {"measurement": "APHA color of octanal", "setting": "[1]", "result": "about 30 APHA"},
      {"measurement": "Analysis of Residue on Paper after Standing 15 Minutes (Area Ratio)", "setting": "[2]; Citral (not present: 1.5), area of musk ketone taken as 1", "result": 2},
      {"measurement": "Analysis of Residue on Paper after Standing 15 Minutes (Area Ratio)", "setting": "[2]; Limonene (not present: 0.3), area of musk ketone taken as 1", "result": 0.6},
      {"measurement": "Analysis of Residue on Paper after Standing 15 Minutes (Area Ratio)", "setting": "[2]; Linalool (not present: 6.4), area of musk ketone taken as 1", "result": 9.5},
      {"measurement": "Analysis of Residue on Paper after Standing 15 Minutes (Area Ratio)", "setting": "[2]; Linalyl Acetate (not present: 5.1), area of musk ketone taken as 1", "result": 8.5},
      {"measurement": "Analysis of Residue on Paper after Standing 15 Minutes (Area Ratio)", "setting": "[2]; Musk Ketone (reference, taken as 1; not present: 1.0)", "result": 1},
      {"measurement": "Analysis of Residue on Paper after Standing 15 Minutes (Area Ratio)", "setting": "[2]; Pinene (not present: 0.0), area of musk ketone taken as 1", "result": 0},
      {"measurement": "LD50", "setting": "[3]; acute oral toxicity", "result": 12.3, "unit": "mL/kg"},
      {"measurement": "Acute toxicity compared with conventional perfume controlling agents", "setting": "[3]; conclusion from Table 1", "result": "equal to, or lower than, other conventional perfume controlling agents"},
      {"measurement": "Analysis of Volatilized Portion after Standing 15 Minutes (HS-GC (II) Method)", "setting": "[4]; Citral (not present: 3.5%)", "result": 1.3, "unit": "%"},
      {"measurement": "Analysis of Volatilized Portion after Standing 15 Minutes (HS-GC (II) Method)", "setting": "[4]; Limonene (not present: 2.6%)", "result": 45.9, "unit": "%"},
      {"measurement": "Analysis of Volatilized Portion after Standing 15 Minutes (HS-GC (II) Method)", "setting": "[4]; Linalool (not present: 45.2%)", "result": 29.7, "unit": "%"},
      {"measurement": "Analysis of Volatilized Portion after Standing 15 Minutes (HS-GC (II) Method)", "setting": "[4]; Linalyl Acetate (not present: 39.0%)", "result": 16.4, "unit": "%"},
      {"measurement": "Analysis of Volatilized Portion after Standing 15 Minutes (HS-GC (II) Method)", "setting": "[4]; Musk ketone (not present: 0.0%)", "result": 0.0, "unit": "%"},
      {"measurement": "Analysis of Volatilized Portion after Standing 15 Minutes (HS-GC (II) Method)", "setting": "[4]; Pinene (not present: 0.2%)", "result": 2.4, "unit": "%"},
      {"measurement": "Volatility and fixing ability", "setting": "[4]; conclusion from Tables 3, 4 and 5", "result": "balanced volatility and fixing ability like DEP and BB"},
      {"measurement": "Head Space Analysis of the Perfume after Adding 50% of DIBA", "setting": "[5]; Benzyl Acetate, content 11.0% (alone 12.5%)", "result": 12.6, "unit": "%"},
      {"measurement": "Head Space Analysis of the Perfume after Adding 50% of DIBA", "setting": "[5]; Geraniol, content 16.5% (alone 0.9%)", "result": 0.5, "unit": "%"},
      {"measurement": "Head Space Analysis of the Perfume after Adding 50% of DIBA", "setting": "[5]; Lily Aldehyde, content 27.5% (alone 0.4%)", "result": 0.2, "unit": "%"},
      {"measurement": "Head Space Analysis of the Perfume after Adding 50% of DIBA", "setting": "[5]; Limonene, content 5.5% (alone 53.4%)", "result": 57.5, "unit": "%"},
      {"measurement": "Head Space Analysis of the Perfume after Adding 50% of DIBA", "setting": "[5]; Linalool, content 11.0% (alone 15.0%)", "result": 12.8, "unit": "%"},
      {"measurement": "Head Space Analysis of the Perfume after Adding 50% of DIBA", "setting": "[5]; Linalyl Acetate, content 11.0% (alone 4.1%)", "result": 0.1, "unit": "%"},
      {"measurement": "Head Space Analysis of the Perfume after Adding 50% of DIBA", "setting": "[5]; Nonanal, content 1.1% (alone […])", "result": 2.1, "unit": "%"},
      {"measurement": "Head Space Analysis of the Perfume after Adding 50% of DIBA", "setting": "[5]; Rose P, content 16.5% (alone 5.1%)", "result": 4.4, "unit": "%"},
      {"measurement": "Cumulative irritation on the skin", "setting": "skin of a guinea pig", "result": "did not exhibit irritating effects"}
    ]}
  ]
}
